≈ marks a conversion by molar mass, not a printed value.

The values that follow come from patent US10954276B2, “Enzyme-based protein separation and enrichment from soy meal, wheat meal, and other protein-rich materials derived from plant seeds, fruits and other biomass” (THE UNIVERSITY OF AKRON, priority 2012, dated 2021).

One experiment concerns bacterial growth. Briefly: Preservatives against bacterial growth during soybean meal enzyme hydrolysis (pH profile). Type of experiment: cell-based. The conditions noted are these: preservative 2 g/L, 50° C., initial pH 4.8. Here is the method:
Systems that were considered in this section are identified on Table 16. All the systems contain 10 g of soybean meal. The enzyme hydrolysis was performed in 250 ml Erlenmeyer flasks which were agitated in orbital shaker at 250 rpm and at 50° C.
For control system, only water was added (no enzyme was added). For non-sterilized system, 10 g of soybean meal was mixed with 4 ml of enzyme broth and about 70 ml DI water. In the case of liquid autoclave system, 10 g of soybean meal was mixed with about 40 ml DI water and was autoclaved for 15 min. After autoclaving, an additional 30 ml of DI water (sterile) and 4 ml of enzyme broth were added. For vacuum autoclave systems, 10 g of soybean meal was autoclaved dry under vacuum cycle in the autoclave with no water for 15 and 45 min, respectively. After the autoclave cycle, 4 ml of enzyme broth and an additional 30 ml of DI water (sterile) was added. In case the sodium benzoate and sodium nitrite systems, 10 g of soybean meal was mixed with 2 g/L of either sodium benzoate or sodium nitrite, enzyme broth and DI water. There was no autoclaving or heating step used in these preservatives systems. The activity of the enzymes in the broth used for these experiments is shown on Table 17. The pH of all of the systems was adjusted to 4.8. Samples were taken periodically for the measurement of reducing sugars.

Experiment [1] concerns bacterial growth present as spores in the soy flour. Briefly: Sodium benzoate concentration to inhibit bacterial growth in soy flour hydrolysis. The note with it: soy flour enzyme hydrolysis. In kind it is cell-based. The method, then: Sodium benzoate (Na.B) was used to inhibit the bacterial growth present as spores in the soy flour that was being used for enzyme hydrolysis enrichment of the soy proteins. Different sodium benzoate concentrations were studied to determine the best concentration of sodium benzoate to inhibit bacterial growth. It was determined that Na.B level of 2 g/L was effective. The hydrolysate byproduct of enzyme hydrolysis of the soy flour having different sugars was intended to be used for arabitol production using Debaryomyces hansenii. In order for this enzyme hydrolysate to be suitable for arabitol production, however, the sodium benzoate must be removed. Accordingly, the maximum concentration that could remain in the hydrolysate that is not inhibitory for D. hansenii growth was determined by this MIC of Na.B test with D. hansenii.

The test system of another experiment is Debaryomyces hansenii. Nature of the experiment: MIC study of benzoic acid for the growth of Debaryomyces hansenii. In kind it is cell-based. The method, then: D. hansenii was inoculated first in a pre-culture medium with the following medium composition (g/L): Glucose 10, Peptone 5, Malt extract 3 and yeast extract 3. A pre-culture was performed in a 250 ml Erlenmeyer flask with 50 ml culture volume in an orbital shaker at 250 rpm and at a temperature of 30° C. After 36 hours, 5% inoculum is transferred into systems with the different benzoic acid concentrations shown in Table 11 and the medium composition shown in Table 12, each system in a 250 ml Erlenmeyer flask with a 50 ml working volume. These flasks were placed in an orbital shaker at 250 rpm and a temperature of 30° C. Samples were taken every 24 h for 3 days and the pH and cell concentrations were measured and recorded.
Cell growth was measured as optical density (OD) by measuring the absorbance of the washed cells at 610 nm with UV-vis spectrophotometer. A known amount of sample was centrifuged at 8000 rpm for 10 min and the supernatant was separated and saved for further analysis. Cell pellet was washed with DI water and centrifuge again under same conditions. Cell pellet was dispersed in water and the absorbance was measured at 610 nm.

In experiment [2] the test system is another strain of Debaryomyces hansenii. The conditions noted are these: cited from earlier work.

For `O=NO` [sodium nitrite], the “bacterial growth judged from pH profile” value with bacterial growth is recorded as “absence of bacterial growth”.

Take `O=C([O-])c1ccccc1.[Na+]` [sodium benzoate, Sodium benzoate]: in experiment [1], the “level effective to inhibit bacterial growth” value stood at 2 g/L. In the experiment on bacterial growth, the “bacterial growth judged from pH profile” value is “absence of bacterial growth”.

On to `O=C(O)c1ccccc1` [Benzoic acid], for which, in the experiment with Debaryomyces hansenii (Debaryomyces hansenii, read-out: MIC against the growth of D. hansenii), the MIC (usually the lowest concentration that inhibits growth of the organism) amounted to 250 µg/mL (≈ 2050 µM). Further, the “Specific growth rate (μ),” value was determined as 0.089 h⁻¹ in the experiment on Debaryomyces hansenii (benzoic acid 0.01 g/L); 0.082 h⁻¹ with Debaryomyces hansenii (benzoic acid 0.025 g/L); 0.079 h⁻¹ in the experiment with Debaryomyces hansenii (benzoic acid 0.05 g/L); 0.075 h⁻¹ with Debaryomyces hansenii (benzoic acid 0.10 g/L); 0.022 h⁻¹ with Debaryomyces hansenii (benzoic acid 0.25 g/L). The “effect on D. hansenii growth” value in the experiment on Debaryomyces hansenii (benzoic acid 0.01 g/L) was “very little inhibitory effect”. In addition, in the experiment on Debaryomyces hansenii (benzoic acid 0.25 g/L), the “cell growth measured as OD” value is reported as “almost no cell growth”. For the same compound, in experiment [2], the MIC concentration is 400 to 500 µg/mL.
